These results are taken from US20230399341A1, “7-PHENYL SUBSTITUTED 2-AMINOQUINAZOLINE INHIBITORS OF HPK1” (MERCK SHARP & DOHME LLC, priority 2020, published 2023).

The assay concerns the target T1, Human HPK1, catalytic domain (Homo sapiens, UniProt Q92918).
T1 sequence (Q92918 1-346): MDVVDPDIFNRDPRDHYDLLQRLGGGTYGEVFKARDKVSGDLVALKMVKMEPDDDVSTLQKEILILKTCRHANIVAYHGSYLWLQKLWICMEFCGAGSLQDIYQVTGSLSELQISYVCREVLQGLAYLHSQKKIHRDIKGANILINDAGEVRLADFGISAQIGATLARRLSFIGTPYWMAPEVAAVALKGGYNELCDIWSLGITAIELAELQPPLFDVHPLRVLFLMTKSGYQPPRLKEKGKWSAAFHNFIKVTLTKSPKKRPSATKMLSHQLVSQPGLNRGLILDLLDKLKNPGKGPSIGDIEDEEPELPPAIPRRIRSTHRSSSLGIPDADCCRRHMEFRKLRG
The experiment in a line: HPK1-SLP76 TR-FRET Assay. The class given is biochemical. The following applies: 75 pM HPK1, ATP 10 uM, SLP76 10 nM, 30 min pre-incubation, 60 min reaction. A general note: In TR-FRET formats the signal depends on donor and acceptor labels being close together.

As a reminder, the IC50 is the concentration at which inhibition is half-maximal. Higher therefore signals a need for much substance.

Molecule `CCS(=O)(=O)Cc1ccc(Nc2ncc3c(N)c(F)c(-c4cnc5c(c4C)NCC(C)(C)O5)cc3n2)c(F)c1` [Compound 2-144, N~2~-{4-[(ethylsulfonyl)methyl]-2-fluorophenyl}-6-fluoro-7-(3,3,8-trimethyl-2,3-dihydro-1H-pyrido[2,3-b][1,4]oxazin-7-yl)quinazoline-2,5-diamine] yielded a half-maximal inhibitory concentration (IC50) of 0.232 nM.

`COc1cc2c(cc1Nc1ncc3ccc(-c4cc(N)ccc4C)cc3n1)CNCC2` [Compound 1-93, 7-(5-amino-2-methylphenyl)-N-(6-methoxy-1,2,3,4-tetrahydroisoquinolin-7-yl)quinazolin-2-amine] yielded a half-inhibitory concentration (IC50) of 481 nM.

On to `COc1cc2c(cc1Nc1ncc3ccc(N4CC(C(C)(C)O)OC4=O)cc3n1)CN(C)CC2` (racemic) [Compound 3-9, (S and R)-5-(2-hydroxypropan-2-yl)-3-{2-[(6-methoxy-2-meth-yl-1,2,3,4-tetrahydroisoquinolin-7-yl)amino]quinazolin-7-yl}-1,3-oxazolidin-2-one], for which it took 63 nM to reach half-maximal inhibition (IC50).

In turn, `COc1cc2c(cc1Nc1ncc3c(N)c(F)c(-c4cc5oc(=O)[nH]c5cc4C)cc3n1)CN(C)CC2` [Compound 2-49, 6-(5-amino-6-fluoro-2-((6-methoxy-2-methyl-1,2,3,4-tetrahydroisoquinolin-7-yl)amino)quinazolin-7-yl)-5-methylbenzo[d]oxazol-2(3H)-one] showed an IC50 of 10.5 nM.

For the molecule `COc1cc2c(cc1Nc1ncc3ccc(-c4cnn(CCO)c4)cc3n1)CN(C)CC2` [Compound 1-13, 2-(4-{2-[(6-methoxy-2-methyl-1,2,3,4-tetrahydroisoquinazolin-7-yl)amino]quinazolin-7-yl}-1H-pyrazol-1-yl)ethan-1-ol], half-maximal inhibition (IC50) was put at 7.7 nM.

Molecule `Cc1c(-c2cc3nc(Nc4ccc5c(c4)CN(C)CC5)ncc3c(N)c2F)cnc2cc[nH]c12` [Compound 2-130, 6-fluoro-7-(7-methyl-1H-pyrrolo[3,2-b]pyridin-6-yl)-N~2~-(2-methyl-1,2,3,4-tetrahydroisoquinolin-7-yl)quinazoline-2,5-diamine] displayed a half-inhibitory concentration (IC50) of 0.103 nM.

On to `COc1cc2c(cc1Nc1ncc3ccc(Nc4cc(S(C)(=O)=O)c(C)cc4C)cc3n1)CN(C)CC2` [Compound 3-42, N~7~-[2,4-dimethyl-5-(methyl-sulfonyl)phenyl]-N~2~-(6-methoxy-2-methyl-1,2,3,4-tetra-hydroisoquinolin-7-yl)quinaz-oline-2,7-diamine], for which half-maximal inhibition (IC50) was put at 3.17 nM.

For the molecule `Cc1ccncc1-c1cc2nc(Nc3ccc4c(c3)CN(C)CC4)ncc2c(N)c1F` [Compound 2-122, 6-fluoro-7-(4-methylpyridin-3-yl)-N~2~- (2-methyl-1,2,3,4-tetrahydroisoquinolin-7-yl)quinazoline-2,5-diamine], half-maximal inhibition (IC50) required 0.22 nM.

`Cc1c(-c2cc3nc(Nc4ccc5c(c4)CN(C)CC5(C)C)ncc3c(N)c2F)cnc2c1NCCO2` [Compound 2-150, 6-fluoro-7-(8-methyl-2,3-dihydro-1H-pyrido[2,3-b][1,4]oxazin-7-yl)-N~2~- (2,4,4-trimethyl-1,2,3,4-tetrahydroisoquinolin-7-yl)quinazoline-2,5-diamine] had an IC50 of 0.0614 nM.

As for `COc1cc2c(cc1Nc1ncc3c(N)c(F)c(-c4cnc5c(c4C)NCCO5)cc3n1)C(C)N(C)CC2` (single isomer, unassigned) [Compound 2-36, (S or R)-6-fluoro-N^2-(6-methoxy-1,2-dimethyl-1,2,3,4-tetrahydroisoquinolin-7-yl)-7-(8-methyl-2,3-dihydro-1H-pyrido[2,3-b][1,4]oxazin-7-yl)quinazoline-2,5-diamine], the midpoint of inhibition, the IC50, lay at 0.101 nM.

Regarding `Cc1c(-c2cc3nc(Nc4ccc(C(C)S(C)(=O)=O)cc4)ncc3cc2F)cnc2c1NCCO2` (single isomer, unassigned) [Compound 1-126, (R of S)-6-fluoro-7-(8-methyl-2,3-dihydro-1H-pyrido[2,3-b][1,4]oxazin-7-yl)-N-{4-[1-(methylsulfonyl)ethyl]phenyl} quinazolin-2-amine], the IC50 turned out to be 0.68 nM.
